In ChEMBL document CHEMBL1201862, “PubChem BioAssay data set” (2004):
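48-hour exposure; five concentrations; linearly interpolated endpoints. Abbreviation: GI50, concentration required for 50% inhibition of growth.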 The source made the active and inactive calls. No stated cut-off is given here; in the data, active = GI50 up to about 1.1 µM and inactive = higher.

Experiments:
Experiment in all cases: NCI tumour cell line growth inhibition, 48 h
SF-268 = test system: SF-268
UO-31 = test system: UO-31
HCT-116 = test system: HCT-116
NCI-H226 = test system: NCI-H226
CCRF-CEM = test system: CCRF-CEM
OVCAR-8 = test system: OVCAR-8
K562 = test system: K562
M14 = test system: M14
CAKI-1 = test system: CAKI-1
SR = test system: SR
HCC 2998 = test system: HCC 2998
HL-60 = test system: HL-60
SW-620 = test system: SW-620
RXF 393 = test system: RXF 393
SN12C = test system: SN12C
SF-539 = test system: SF-539
786-0 = test system: 786-0
KM12 = test system: KM12
DU-145 = test system: DU-145
A498 = test system: A498

| Compound | GI50 (SF-268) | GI50 (UO-31) | GI50 (HCT-116) | GI50 (NCI-H226) | GI50 (CCRF-CEM) | GI50 (OVCAR-8) | GI50 (K562) | GI50 (M14) | GI50 (CAKI-1) | GI50 (SR) | GI50 (HCC 2998) | GI50 (HL-60) | GI50 (SW-620) | GI50 (RXF 393) | GI50 (SN12C) | GI50 (SF-539) | GI50 (786-0) | GI50 (KM12) | GI50 (DU-145) | GI50 (A498) |
| --- | --- | --- | --- | --- | --- | --- | --- | --- | --- | --- | --- | --- | --- | --- | --- | --- | --- | --- | --- | --- |
| CCN(CC)c1ccc(C(=C2C=CC(=[N+](CC)CC)C=C2)c2ccc(N(CC)CC)cc2)cc1 | 0.084 µM (active) | 0.212 µM (active) | 0.0493 µM (active) | 0.407 µM (active) | 0.0593 µM (active) | 0.0391 µM (active) | 0.0353 µM (active) | 0.175 µM (active) | 0.21 µM (active) | 0.0843 µM (active) | 0.186 µM (active) | 0.0303 µM (active) | 0.0711 µM (active) | 0.18 µM (active) | 0.0522 µM (active) | 0.195 µM (active) | 0.057 µM (active) | 0.0561 µM (active) | 0.0708 µM (active) |  |
| Cc1ccc(OCC2CO2)c(Br)c1 (centres undefined) | 13.1 µM (inactive) | 18.5 µM (inactive) | 16.1 µM (inactive) | 15.9 µM (inactive) | 27.9 µM (inactive) | 7.8 µM (inactive) | 22.3 µM (inactive) | 34.1 µM (inactive) | 33.7 µM (inactive) |  | 16 µM (inactive) | 30.1 µM (inactive) | 12.7 µM (inactive) | 10.1 µM (inactive) | 18.6 µM (inactive) | 15 µM (inactive) | 19.5 µM (inactive) | 66.7 µM (inactive) | 38.4 µM (inactive) | 34.4 µM (inactive) |
| C/C=C/C[C@@H](C)C(=O)C1C(=O)N[C@@H](C(C)C)C(=O)N(C)CC(=O)N(C)[C@@H](CC(C)C)C(=O)N[C@@H](C(C)C)C(=O)N(C)[C@@H](CC(C)C)C(=O)N[C@@H](C)C(=O)N[C@@H](C)C(=O)N(C)[C@@H](CC(C)C)C(=O)N(C)[C@@H](CC(C)C)C(=O)N(C)[C@@H](C(C)C)C(=O)N1C (some centres undefined) | 7.89 µM (inactive) | 3.78 µM (inactive) | 3.03 µM (inactive) | 6.11 µM (inactive) | 4.06 µM (inactive) | 9.82 µM (inactive) | 4.45 µM (inactive) | 6.28 µM (inactive) | 12.8 µM (inactive) | 4.07 µM (inactive) | 2.46 µM (inactive) | 2.8 µM (inactive) | 5.24 µM (inactive) | 3.03 µM (inactive) | 5.58 µM (inactive) | 4.23 µM (inactive) | 7.76 µM (inactive) | 3.67 µM (inactive) | 4.06 µM (inactive) |  |
| C=C(C)C1CCC(C(=O)O)CC1 (centres undefined) | > 100 µM (inactive) | > 100 µM (inactive) | > 100 µM (inactive) | > 100 µM (inactive) | > 100 µM (inactive) | > 100 µM (inactive) | > 100 µM (inactive) | > 100 µM (inactive) | > 100 µM (inactive) |  | > 100 µM (inactive) |  | > 100 µM (inactive) | > 100 µM (inactive) | > 100 µM (inactive) | > 100 µM (inactive) | > 100 µM (inactive) | > 100 µM (inactive) | > 100 µM (inactive) | > 100 µM (inactive) |
| CCCCC(=O)/C=c1/cc(C)[nH]c2cccc3cnn1c32 | > 100 µM (inactive) | > 100 µM (inactive) | > 100 µM (inactive) | > 100 µM (inactive) | > 100 µM (inactive) | > 100 µM (inactive) |  | > 100 µM (inactive) | > 100 µM (inactive) | 48 µM (inactive) |  | > 100 µM (inactive) | > 100 µM (inactive) |  | > 100 µM (inactive) | > 100 µM (inactive) | > 100 µM (inactive) | > 100 µM (inactive) | > 100 µM (inactive) | > 100 µM (inactive) |
| C/C(=C\CO)CC/C=C(\C)CNc1ccc([N+](=O)[O-])cc1 | 63.5 µM (inactive) | 7.98 µM (inactive) | 93.5 µM (inactive) | 96.6 µM (inactive) |  | 30.8 µM (inactive) | 15 µM (inactive) | 62.1 µM (inactive) | 80.5 µM (inactive) | 4.54 µM (inactive) |  | 19.6 µM (inactive) | 56.1 µM (inactive) | > 100 µM (inactive) | 60.8 µM (inactive) | 28.6 µM (inactive) | > 100 µM (inactive) | 16.1 µM (inactive) | 50.4 µM (inactive) |  |
| COc1cccc(-c2nc(-c3cnccn3)n(Cc3ccccc3)n2)c1 | > 100 µM (inactive) | 73.5 µM (inactive) | > 100 µM (inactive) |  | > 100 µM (inactive) | > 100 µM (inactive) | > 100 µM (inactive) | > 100 µM (inactive) |  | > 100 µM (inactive) | > 100 µM (inactive) | > 100 µM (inactive) | > 100 µM (inactive) | 25.4 µM (inactive) | > 100 µM (inactive) | 85.1 µM (inactive) | 69.5 µM (inactive) | > 100 µM (inactive) | > 100 µM (inactive) |  |
| Nc1nc(Cl)cc(NCC2(CCO)CCC2)n1 |  | > 100 µM (inactive) | > 100 µM (inactive) | > 100 µM (inactive) | > 100 µM (inactive) | > 100 µM (inactive) | > 100 µM (inactive) |  | > 100 µM (inactive) | > 100 µM (inactive) | > 100 µM (inactive) | > 100 µM (inactive) | > 100 µM (inactive) | 80.5 µM (inactive) | > 100 µM (inactive) | > 100 µM (inactive) | > 100 µM (inactive) | > 100 µM (inactive) | > 100 µM (inactive) |  |
| COc1ccc2c3c1O[C@H]1[C@@H](O)CC[C@@]4(O)[C@@H](C2)N(C)CC[C@]314 | > 100 µM (inactive) | > 100 µM (inactive) | > 100 µM (inactive) | > 100 µM (inactive) | > 100 µM (inactive) | > 100 µM (inactive) | > 100 µM (inactive) | > 100 µM (inactive) | > 100 µM (inactive) | > 100 µM (inactive) |  | 2.93 µM (inactive) | > 100 µM (inactive) |  | > 100 µM (inactive) | > 100 µM (inactive) | > 100 µM (inactive) | > 100 µM (inactive) | > 100 µM (inactive) | > 100 µM (inactive) |
| CP(=O)(O)C(N)c1ccccc1 (centres undefined) | > 100 µM (inactive) | > 100 µM (inactive) | > 100 µM (inactive) | > 100 µM (inactive) | > 100 µM (inactive) | > 100 µM (inactive) | > 100 µM (inactive) | > 100 µM (inactive) | > 100 µM (inactive) | > 100 µM (inactive) |  | > 100 µM (inactive) | > 100 µM (inactive) |  | > 100 µM (inactive) |  | > 100 µM (inactive) | > 100 µM (inactive) | > 100 µM (inactive) |  |
| CCC1(C)C=Cc2c(cc(OC)c3c(=O)c4ccccc4n(C)c23)O1 (centres undefined) | > 10 µM (inactive) | 1.15 µM (inactive) | > 10 µM (inactive) | > 10 µM (inactive) | 9.27 µM (inactive) | > 10 µM (inactive) | 8.61 µM (inactive) | > 10 µM (inactive) | 1.22 µM (inactive) |  | > 10 µM (inactive) |  | > 10 µM (inactive) | 2.44 µM (inactive) | > 10 µM (inactive) | 4.47 µM (inactive) | 5.27 µM (inactive) | 1.5 µM (inactive) | > 10 µM (inactive) | > 10 µM (inactive) |
| Cc1ccc(S(=O)(=O)NC(=O)NC(CCC(N)=O)C(=O)O)cc1 (centres undefined) | > 100 µM (inactive) | > 100 µM (inactive) | > 100 µM (inactive) |  | > 100 µM (inactive) | > 100 µM (inactive) | > 100 µM (inactive) | > 100 µM (inactive) |  | > 100 µM (inactive) |  | 69.5 µM (inactive) | > 100 µM (inactive) | > 100 µM (inactive) | > 100 µM (inactive) | > 100 µM (inactive) | > 100 µM (inactive) | > 100 µM (inactive) | > 100 µM (inactive) |  |
| O=C1O/C(=C/c2ccccc2)C(c2ccccc2)=C1O |  | 27 µM (inactive) | 36.9 µM (inactive) | > 100 µM (inactive) | 29.7 µM (inactive) | 60.1 µM (inactive) | 41.1 µM (inactive) | 59.8 µM (inactive) | 47.3 µM (inactive) |  | 41.3 µM (inactive) | 20.1 µM (inactive) | 43.7 µM (inactive) | 24.3 µM (inactive) | 33 µM (inactive) | 37.9 µM (inactive) | 46.7 µM (inactive) | 59.8 µM (inactive) | 26 µM (inactive) | 23.1 µM (inactive) |
| CC1=CC2(C)C=C[C@@H]1C(=O)[C@@]1(C)CC[C@@](O)(C(C)C)[C@H]1CC2 | 23.8 µM (inactive) | 17.6 µM (inactive) | 17.3 µM (inactive) | 23.4 µM (inactive) | 21.6 µM (inactive) | 17.1 µM (inactive) | 20 µM (inactive) | 19.3 µM (inactive) |  |  | 17.5 µM (inactive) |  | 18.8 µM (inactive) | 19.4 µM (inactive) | 20.9 µM (inactive) | 18.9 µM (inactive) | 17.3 µM (inactive) | 20.3 µM (inactive) | 28.9 µM (inactive) | 28.6 µM (inactive) |
| O=C(CCCN1CCC(O)(c2ccc(Cl)cc2)CC1)c1ccc(F)cc1 [HALOPERIDOL] | 48.2 µM (inactive) | 15.7 µM (inactive) | 15.1 µM (inactive) | 32.2 µM (inactive) | 41.4 µM (inactive) | 32.7 µM (inactive) | > 100 µM (inactive) | 18.5 µM (inactive) | 10.1 µM (inactive) | 48.1 µM (inactive) |  |  | 18.2 µM (inactive) |  | 37.7 µM (inactive) | 26.1 µM (inactive) | 19.4 µM (inactive) | 18.6 µM (inactive) | 85.1 µM (inactive) |  |
| CC1(C)CCC2=C(O1)c1ccccc1C(=O)C2=O [LAPACHONE] | 0.682 µM (active) |  | 0.277 µM (active) | 1.35 µM (inactive) | 0.908 µM (active) | 0.398 µM (active) | 0.245 µM (active) | 0.316 µM (active) | 1.03 µM (active) | 0.215 µM (active) |  |  | 0.432 µM (active) | 1.41 µM (inactive) | 0.51 µM (active) | 0.463 µM (active) | 1.2 µM (inactive) | 1.36 µM (inactive) | 0.64 µM (active) | 5.42 µM (inactive) |
